Measurements: patent US3975535A, “Anti-allergic-3-carboxy-isocoumarin compositions and methods of use” (Beecham Group Limited, priority 1973, dated 1976)

Test system: PCA responses
Assay: Rat Passive Cutaneous Anaphylaxis (PCA) test
Format: in vivo, Wistar rats
Procedure: All of the compounds prepared in the preceding Examples were submitted for biological testing. The test system was the Rat Passive Cutaneous Anaphylaxis (PCA) test described below in (ii).
i. Serum containing heat labile homocytotropic antibody was raised in rats by a method similar to that used by Mota. (I. Mota Immunology 1964, 7, 681).
Male Wistar rats of 250-300g. were injected intraperitoneally with 0.5 of Bordatella pertussis vaccine (containing 4 × 10^10 dead organism per ml) and subcutaneously with 0.5ml of an emulsion of 100mg. of ovalbumin in 2ml of saline and 3ml of incomplete Freunds' adjuvant. Rats were bled by cardiac puncture on day 18, the blood was pooled and separated and serum stored at -20° and thawed only once before use.
ii. The P.C.A. test was similar to that described by Ovary and Bier (A. Ovary and O. E. Bier, Proc. Soc. Exp. Biol. Med. 1952, 81, 584) and Goose and Blair (J. Goose and AMJ. N. Blair, Immunology 1969, 16, 769).
0.1ml of each of six twofold serial dilutions of the serum in 0.9% saline were injected intradermally into separate sites on the shaved dorsal surface of 250-350g. Wistar rats. 72 hours later the animals were challenged by i.v. injection of 0.3ml of 1% ovalbumin mixed with 0.1ml of a 5% solution of pontamine sky blue dye both in isotonic saline buffered with pH. 7.2 Sorenson buffer (P.B.S.). The rats were killed after 20 minutes and the diameter of the blue wheals at the antibody injection sites were measured. The starting dilution of the serum was adjusted so that there was no response, after challenge, at the site of injection of the highest dilution and a maximum response at the lowest dilution. Typically, six twofold serial dilutions of the serum from 1/4 to 1/128 were used.
Compounds were tested for their ability to reduce the diameter of the wheals at the injection sites of dilutions of antibody which on all the controls have less than maximum response. Amounts of the compounds were administered to rats each amount to a test group of six animals at a specified time prior to intravenous challenge with ovalbumin. The diameters of the blue wheals which developed on the tests group of animals were compared with those on a control group of six animals treated in the same way as the test group, but which had not received the compound under test.
% Inhibition of P.C.A. = 100 (1 - a/b)
a = The mean of the sum of the diameters of the wheals produced in the test group of animals at those antibody sites where all the control group of animals gave less than maximum response.
b = The mean of the sum of diameters of the wheals produced in the control group of animals at those antibody sites where all the animals in the group gave less than maximum response.
The preferred method of administration was a solution of the test compound dissolved in pH 7.2 buffer and neutralised with sodium bicarbonate.

[1] = iv, time 0 mins prior to i.v. ovalbumin challenge
[2] = iv, time 30 mins prior to i.v. ovalbumin challenge
[3] = iv, time 60 mins prior to i.v. ovalbumin challenge
[4] = iv, time 10 mins prior to i.v. ovalbumin challenge
[5] = first dose pair, only one time (0) printed for the whole line
[6] = second dose pair, time not printed separately

SMILES | inhibition at 25 mg/kg [1] | inhibition at 25 mg/kg [2] | inhibition at 100 mg/kg [1] | inhibition at 100 mg/kg [2] | further results
Cc1c(C(=O)O)oc(=O)c2c(C)cccc12 [Example 4, 4,8-Dimethylisocoumarin-3-carboxylic acid] | 10% | 8% | 12% | 48% | –
O=C(O)c1cc2ccc(Br)cc2c(=O)o1 [Example 6, 7-Bromoisocoumarin-3-carboxylic acid] | 26% | – | 39% | – | inhibition at 25 mg/kg [3]: 39%; inhibition at 100 mg/kg [3]: 0%
COc1ccc2cc(C(=O)O)oc(=O)c2c1OC [Example 15, 7,8-Dimethoxyisocoumarin-3-carboxylic acid] | – | 12% | – | 29% | inhibition at 25 mg/kg [4]: 64%; inhibition at 100 mg/kg [4]: 63%
Cc1c(C(=O)O)sc(=O)c2ccccc12 [Example 13, 4-Methyl-2-thiaisocoumarin-3-carboxylic acid] | -6% | – | 6% | – | inhibition at 25 mg/kg [3]: 6%; inhibition at 100 mg/kg [3]: 19%
COc1cc2cc(C(=O)O)sc(=O)c2cc1OC [Example 14, 6,7-Dimethoxy-2-thiaisocoumarin-3-carboxylic acid] | – | – | – | – | inhibition at 12.5 mg/kg (iv, Dose 12.5 mg/Kg, time 10 mins prior to i.v. ovalbumin challenge): 28%; inhibition at 25 mg/kg [4]: 47%; inhibition at 50 mg/kg (iv, Dose 50 mg/Kg, time 10 mins prior to i.v. ovalbumin challenge): 79%; inhibition at 100 mg/kg [4]: 87%
COc1cc2cc(C(=O)O)[nH]c(=O)c2cc1OC [Example 11, 6,7-Dimethoxyisocarbostyril-3-carboxylic acid] | 11% | 2% | 38% | 17% | –
O=C(O)c1cc2ccccc2c(=O)o1 [Example 1, Isocoumarin-3-carboxylic acid] | 29% | -13% | 62% | 16% | –
Cc1c(C(=O)O)[nH]c(=O)c2ccccc12 [Example 10, 4-Methylisocarbostyril-3-carboxylic acid] | 12% | -13% | 26% | 21% | –
O=C(O)c1cc2ccccc2c(=O)[nH]1 [Example 9, Isocarbostyril-3-carboxylic acid] | 21% | 15% | 36% | 25% | –
Cc1cccc2cc(C(=O)O)oc(=O)c12 [Example 3, 8-Methylisocoumarin-3-carboxylic acid] | – | – | – | – | inhibition at 25 mg/kg [5]: 44%; inhibition at 25 mg/kg [6]: 15%; inhibition at 100 mg/kg [5]: 66%; inhibition at 100 mg/kg [6]: 28%
COc1cc2cc(C(=O)O)oc(=O)c2cc1OC [Example 8, 6,7-Dimethoxyisocoumarin-3-carboxylic acid] | 64% | 24% | 84% | 24% | –
Cc1cc2c(C)c(C(=O)O)oc(=O)c2cc1C [Example 7, 4,6,7-Trimethylisocoumarin-3-carboxylic acid monohydrate] | 10% | 39% | 15% | 49% | –
COc1ccc2cc(C(=O)O)oc(=O)c2c1 [Example 5, 7-Methoxyisocoumarin-3-carboxylic acid] | 9% | – | 9% | – | inhibition at 25 mg/kg [3]: 4%; inhibition at 100 mg/kg [3]: 55%
O=C(O)c1cc2ccccc2c(=O)s1 [Example 12, 2-Thiaisocoumarin-3-carboxylic acid] | 0% | – | 22% | – | inhibition at 25 mg/kg [3]: 4%; inhibition at 100 mg/kg [3]: 14%
Cc1c(C(=O)O)oc(=O)c2ccccc12 [Example 2, 4-Methylisocoumarin-3-carboxylic acid] | -3% | 0% | 41% | 10% | –
